According to article PMC9883540, “Study on pharmacokinetic interactions between SHR2554 and itraconazole in healthy subjects: A single‐center, open‐label phase I trial” (Cancer Medicine, 2022):
Several values for one entry are separate records, joined by “and”; a condition that tells them apart may be missing. Equal entries are not always repeated. Entries after “also recorded” stand apart in the source; their conditions may differ. Where two headings read alike, the source gives them in different places.

How the values were obtained:
[1] = cited from earlier work
[2] = in vivo
Method: Eighteen volunteers were recruited for the study. The subjects were orally administered SHR2554 at a 50 mg daily dose (Day 1); then, they were orally administered itraconazole 200 mg Quaque Die (QD) for 4 days (Days 4–7) followed by co‐administration of itraconazole 200 mg and SHR2554 50 mg (Day 8). They took itraconazole 200 mg QD for 4 days (Days 9–12). All subjects were fasted for at least 10 h, and they ate a standard meal in 30 min before drug administration. Water was forbidden within 1 h after drug administration, and the subjects were fasted for at least 4 h after drug administration.
Safety evaluation included adverse events, laboratory tests, physical examination, measurement of vital signs, 12‐lead electrocardiogram, etc. All abnormal and clinically significant laboratory results were followed up until they returned to normal.

[3] = test system: CYP3A4; settings: sponsor's preclinical studies, no method or reference given; cited from earlier work
[4] = test system: wild‐type and mutant EZH2 enzymes; settings: no method or reference given; cited from earlier work
[5] = test system: Caco‐2 cell model; design: method as in PMID 34498807; settings: preclinical results; cited from earlier work
[6] = test system: tumor; settings: same dose; no reference given; cited from earlier work
[7] = cited from earlier work; remark: listed apart in the source
[8] = test system: CYP3A4; settings: preclinical test, no method or reference given; cited from earlier work
[9] = test system: cell H3K27Me3 and cell proliferation; design: method as in PMID 34503063; settings: cited from earlier work
[10] = Pharmacokinetic interaction study of itraconazole on SHR2554, plasma SHR2554 by HPLC-MS/MS; type: in vivo, human; settings: for AUC0–t / AUC0–∞ / C max: plasma SHR2554, mean ± SD
Method: Eighteen volunteers were recruited for the study. […] The samples of venous blood (4 ml) were collected into heparinized Vacutainer™ tubes and mixed gently. […] Thereafter, plasma was separated by centrifugation (2000g at 4°C for 10 min) within 1 h of sample collection and then stored at −80°C before analyses. The plasma concentrations of SHR2554 were determined by a validated method with sensitivity and specificity using high‐performance liquid chromatography–tandem mass spectrometry (HPLC‐MS/MS) by Shanghai InnoStar Bio‐tech Co. Ltd. Blood samples were pretreated by protein precipitation with acetonitrile. Biological sample analysis was performed using SHR149633 (free base) as an internal standard. Separation of SHR2554 was carried out using a […] ZORBAX Extend‐C18 column (2.1 × 50 mm, 1.8 μm), and analytes were detected on an AB SCIEX QTRAP 5500 mass spectrometer. The assay was linear over the range of 1–2000 ng·ml^−1. […] Plasma samples are stable under various conditions. The PK parameters were evaluated using Phoenix WinNonlin v8.1. Statistical analysis was performed with SAS v9.2 (SAS Institute). Descriptive statistics and tabulation of PK parameters for analytes were performed, and mean concentration‐time curves were plotted. After natural log transformation, the PK parameters were fitted with a mixed‐effects model. In the mixed‐effects model analysis, medication (itraconazole combined with SHR2554 or SHR2554 alone) was used as a fixed effect, and the participants in the model fitting were used as random effects. The corrected least‐square mean difference and 90% confidence interval (CI) between the administration of a single drug (SHR2554) alone and a combination drug (co‐administration of SHR2554 and itraconazole) were obtained. The corrected least‐square mean difference and its 90% confidence interval were converted to the adjusted geometric mean ratios (GMRs) (co‐administration of SHR2554 and itraconazole/SHR2554 alone) and its 90% confidence interval by taking the antilog.

[11] = test system: CYP3A4; settings: preclinical test, no method or reference given; cited from earlier work; remark: listed apart in the source
[12] = cited from earlier work; remark: listed apart in the source
[13] = SHR2554 50 mg co-administered with itraconazole 200 mg (Day 8), fed, mean ± SD
[14] = SHR2554 50 mg co-administered with itraconazole 200 mg (Day 8), fed
[15] = SHR2554 50 mg single oral dose alone (Day 1), fed, mean ± SD
[16] = SHR2554 50 mg single oral dose alone (Day 1), fed
[17] = SHR2554 50 mg, itraconazole 200 mg, 90% CI in brackets
[18] = completed or ongoing clinical trials of SHR2554, reference not given

## CC[C@H](C)n1cc(C)c2c(C(=O)NCc3c(C)cc(C)[nH]c3=O)cc(-c3ccc(N4CCNCC4)nc3)cc21 [GSK2816126, reference compound]
[1]
  most common adverse reactions in clinical trial: fatigue and nausea

## CCC(C)n1ncn(-c2ccc(N3CCN(c4ccc(OCC5COC(Cn6cncn6)(c6ccc(Cl)cc6Cl)O5)cc4)CC3)cc2)c1=O (stereo not shown) [Itraconazole, itraconazole]
[2]; human
  Itraconazole‐related TEAEs, Cases: 2
  Itraconazole‐related TEAEs, Number of subjects (%): 2 (11.1)
  SHR2554‐related TEAEs, Cases: 1
  SHR2554‐related TEAEs, Number of subjects (%): 1 (5.6)
  TEAEs, Cases: 2
  TEAEs, Number of subjects (%): 2 (11.1)
  TEAEs, Total: 2 (11.1)
  TEAEs: All kinds of inspection: 1 (5.6)
  TEAEs: Appendicitis: 0
  TEAEs: Blood in the urine: 0
  TEAEs: Cardiac organ diseases: 0
  TEAEs: Hematuria: 0
  TEAEs: High blood uric acid: 0
  TEAEs: Increased blood bilirubin: 0
  TEAEs: Increased blood triglyceride: 1 (5.6)
  TEAEs: Increased heart rate: 0
  TEAEs: Infectious diseases: 0
  TEAEs: Kidney and urinary system diseases: 0
  TEAEs: Positive bacterial tests: 0
  TEAEs: Positive urine leukocyte: 0
  TEAEs: Rash: 1 (5.6)
  TEAEs: Skin and subcutaneous tissue diseases: 1 (5.6)
  TEAEs: Spermaturia: 0
  TEAEs: Supraventricular extrasystole contraction: 0
  drug-related TEAEs, Cases: 6
[2]
  drug-related TEAEs, Cases: six

## CCc1c(N(CC)C2CCOCC2)cc2oc(CN3CCCCC3)cc2c1C(=O)NCc1c(C)cc(C)[nH]c1=O [SHR2554]
[2]
  Itraconazole‐related TEAEs, Cases: 2
  Itraconazole‐related TEAEs, Number of subjects (%): 2 (11.1)
  SHR2554‐related TEAEs, Cases: 12
  SHR2554‐related TEAEs, Number of subjects (%): 9 (50.0)
  TEAEs, Cases: 13
  TEAEs, Number of subjects (%): 9 (50.0)
  TEAEs, Total: 9 (50.0)
  TEAEs: All kinds of inspection: 8 (44.4)
  TEAEs: Appendicitis: 0
  TEAEs: Blood in the urine: 2 (11.1)
  TEAEs: Cardiac organ diseases: 1 (5.6)
  TEAEs: Hematuria: 1 (5.6)
  TEAEs: High blood uric acid: 1 (5.6)
  TEAEs: Increased blood bilirubin: 0
  TEAEs: Increased blood triglyceride: 4 (22.2)
  TEAEs: Increased heart rate: 1 (5.6)
  TEAEs: Infectious diseases: 0
  TEAEs: Kidney and urinary system diseases: 2 (11.1)
  TEAEs: Positive bacterial tests: 2 (11.1)
  TEAEs: Positive urine leukocyte: 0
  TEAEs: Rash: 0
  TEAEs: Skin and subcutaneous tissue diseases: 0
  TEAEs: Spermaturia: 1 (5.6)
  TEAEs: Supraventricular extrasystole contraction: 1 (5.6)
  drug-related TEAEs, Cases: 16
[3]
  enzyme catalysing the oxidative metabolism: mainly metabolized by CYP3A4; also recorded: mainly catalyzed by CYP3A4
[4]
  inhibition of the activity of wild-type and mutant EZH2 enzymes: potently inhibits
[5]
  permeability: low permeability
[6]
  serum and tumor systemic exposure as fraction of that of EPZ-6438: about one‐fifth
  tumor inhibition rate relative to the reference compound EPZ-6438: higher
[7]; 350 mg group, ref NCT03603951
  subjects with grade four neutropenia reported as SAE/DLT: one
[7]; 400 mg BID group, as of January 3, 2020, ref NCT03603951
  subjects with grade three and four decreased platelet counts reported as SAE/DLT: two
[7]; no drug-related SAE or DLT, previous clinical studies, ref NCT03603951
  safety at doses below 300 mg BID (including 300 mg BID): good and good safety profile
[7]; previous clinical studies, ref NCT03603951
  recommended phase II dose: 350 mg BID
[7]; range of 50–400 mg BID, ref NCT03603951
  increase of exposure relative to increase of dose: higher than that of the administered dose
[7]; ref NCT03741712
  subjects with grade two anemia reported as SAE: one
[8]
  induction of the expression of the CYP3A4 enzyme: only high concentration SHR2554 can induce
[9]
  IC50 for inhibiting cell H3K27Me3 and cell proliferation, relative to EPZ-6438: comparable or even better
  anti-tumor activity in vitro, relative to EPZ-6438 (tazemetostat): comparable
[10]; [13]
  CL/F (apparent clearance): 98.4 ± 46.96 L/h
  t 1/2 (elimination half-life): 8.678 ± 3.6031 h
[10]; [14]
  AUC0–t: 612.13 ± 315.720 ng·h/mL
  AUC0–∞: 641.53 ± 319.538 ng·h/mL
[10]; SHR2554 50 mg co-administered with itraconazole 200 mg (Day 8; itraconazole 200 mg QD Days 4-12), fed
  C max: 70.538 ± 25.0219 ng/mL
[10]; SHR2554 50 mg combined with itraconazole 200 mg
  plasma concentration of all subjects at 96 h: below LLOQ
[10]; [15]
  AUC_%Extrap (percentage of AUCINF_pred due to extrapolation from Tlast to infinity): 14.498 ± 2.9731 (20.51) [N = 8] %
  CL/F (apparent clearance): 2127.7 ± 1592.02 L·h^−1 and 2127.7 ± 1592.02 (74.82) [N = 18] L·h^−1
  T max: 1.472 ± 0.6286 (0.50, 3.00) [N = 18] h
  V z /F: 8439.2 ± 3779.31 (44.78) [N = 18] L
  t 1/2 (elimination half-life): 3.287 ± 1.0636 (1.76, 5.94) [N = 18] h
[10]; [16]
  AUC0–t: 28.70 ± 18.913 (65.90) [N = 18] h·ng·ml^−1
  AUC0–∞: 50.99 ± 19.358 (37.97) [N = 8] h·ng·ml^−1
  C max: 10.197 ± 7.0262 (68.91) [N = 18] ng·ml^−1
[10]; [17]
  adjusted geometric mean ratio of SHR2554 AUC0–t (co-administration with itraconazole / SHR2554 alone): 23.75 fold
  adjusted geometric mean ratio of SHR2554 AUC0–∞ (co-administration with itraconazole / SHR2554 alone): 12.47 fold
  adjusted geometric mean ratio of SHR2554 C max (co-administration with itraconazole / SHR2554 alone): 7.73 fold
[10]; single-dose phase of SHR2554 50 mg, assay range 1–2000 ng·ml^−1
  plasma concentration of all subjects at 24 h after administration: below lower limit of quantitation
[1]; completed or ongoing clinical trials of SHR2554, clinically controllable, no reference given
  electrocardiogram finding in some subjects: prolongation of the QT interval of the electrocardiogram
[1]; [18]
  most common drug-related TEAEs in hematology: decreased white blood cell count, thrombocytopenia, neutropenia, and hyperlipidemia, increased aspartate aminotransferase level, hypertension, elevated alanine aminotransferase, anemia
  non-hematological common drug-related TEAEs: nausea and fatigue
[11]
  inhibitory effect on CYP3A4: weak inhibitory effect

## CC[C@H](C)C(=O)O[C@H]1C[C@@H](C)C=C2C=C[C@H](C)[C@H](CC[C@@H](O)C[C@@H](O)CC(=O)O)[C@H]21 [lovastatin (acid)]
[12]; itraconazole dose 100 mg
  change in the AUC with itraconazole: 15 fold
[12]; itraconazole dose 200 mg
  change in the AUC with itraconazole: 20 fold

## CCN(c1cc(-c2ccc(CN3CCOCC3)cc2)cc(C(=O)NCc2c(C)cc(C)[nH]c2=O)c1C)C1CCOCC1 [tazemetostat, reference compound]
[1]
  adverse effects in clinical trial: thrombocytopenia, neutropenia, and anemia
